Reference: patent publication US20260159499A1, “COMPOUND AS FAK INHIBITOR AND USE THEREOF” (WIGEN BIOMEDICINE TECHNOLOGY (SHANGHAI) CO., LTD., priority 2021, published 2026)

Columns and labels:
PC3 cells [1] = assay: PC3 cell proliferation, 3D activity detection; format: cell-based, human; conditions: PC3, 3D culture, 14 days, read-out: 3D IC50 against PC3 cells
Procedure: 3D activity detection: PC3 cells were seeded in a 96-well plate at 1200 cells/well, and 3D culture was performed. 14 days after the compound serially diluted was added, the growth of the cells was determined. The inhibition percentage and IC50 of the compound were calculated compared to the DMSO control group.

FAK recombinant protein = FAK recombinant protein (Homo sapiens, UniProt Q05397); assay: Inhibitory activity against FAK enzyme; format: biochemical; conditions: TK substrate, ATP
Procedure: The compound serially diluted with DMSO and a FAK recombinant protein were mixed, and the mixture was left to stand at room temperature for 10 min. A biotin-labeled TK substrate (TK) and ATP were then added. […] After the mixture was incubated at room temperature for 1 h, the fluorescence intensity at 615 nm and 665 nm was measured. The ratio of the fluorescence intensity at 665 nm and 615 nm was calculated. The inhibition percentages and IC50 of the compounds were calculated compared to the DMSO control group.

PC3 cells [2] = assay: PC3 cell proliferation, 2D activity detection; format: cell-based, human; conditions: PC3, 2D, 72 h, class symbol, read-out: 2D IC50 against PC3 cells
Procedure: 2D activity detection: 1200 PC3 cells were seeded in a 96-well plate. After overnight adherence culture, the compound serially diluted was added. 72 h after addition, Cell Titer-Lumi (Beyotime C0068XL) was added to measure the ATP content in the cells. The growth of the cells was evaluated, and IC50 of the compounds against cell growth was calculated.

[3] = Homo sapiens, PC-3, 336 h, class symbol
[4] = Homo sapiens, PC-3, 336 h, numeric (mean where marked *)

FAK recombinant protein, sequence (Q05397 whole entry, species assumed): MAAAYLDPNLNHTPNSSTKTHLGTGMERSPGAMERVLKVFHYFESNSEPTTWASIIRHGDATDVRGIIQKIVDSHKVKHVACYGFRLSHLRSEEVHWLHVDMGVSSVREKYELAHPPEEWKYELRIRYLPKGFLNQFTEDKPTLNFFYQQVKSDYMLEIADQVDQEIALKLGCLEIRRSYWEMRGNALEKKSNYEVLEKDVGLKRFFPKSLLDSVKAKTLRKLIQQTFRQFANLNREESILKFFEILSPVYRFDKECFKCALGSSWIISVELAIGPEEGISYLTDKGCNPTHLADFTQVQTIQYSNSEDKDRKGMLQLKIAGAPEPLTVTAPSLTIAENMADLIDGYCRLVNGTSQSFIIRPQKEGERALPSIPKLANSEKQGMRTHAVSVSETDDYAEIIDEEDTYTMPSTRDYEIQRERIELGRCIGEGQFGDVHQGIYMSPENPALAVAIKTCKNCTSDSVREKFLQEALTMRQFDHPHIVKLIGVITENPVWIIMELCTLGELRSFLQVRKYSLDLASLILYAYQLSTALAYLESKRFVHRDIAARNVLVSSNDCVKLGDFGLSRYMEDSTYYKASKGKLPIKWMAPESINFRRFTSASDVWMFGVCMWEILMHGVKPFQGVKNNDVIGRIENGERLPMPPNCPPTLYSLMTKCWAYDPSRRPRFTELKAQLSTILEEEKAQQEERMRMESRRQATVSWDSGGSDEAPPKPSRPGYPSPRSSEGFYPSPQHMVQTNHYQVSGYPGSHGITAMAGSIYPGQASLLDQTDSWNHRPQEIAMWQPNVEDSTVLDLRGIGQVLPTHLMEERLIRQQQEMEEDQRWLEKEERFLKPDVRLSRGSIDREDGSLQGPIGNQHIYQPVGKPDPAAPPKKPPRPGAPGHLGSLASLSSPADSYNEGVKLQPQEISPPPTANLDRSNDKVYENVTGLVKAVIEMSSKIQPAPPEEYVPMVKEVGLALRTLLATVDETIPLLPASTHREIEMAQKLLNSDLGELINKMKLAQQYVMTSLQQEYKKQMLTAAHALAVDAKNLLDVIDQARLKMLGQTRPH

| SMILES | IC50 (PC3 cells [1]; [3]) | IC50 (FAK recombinant protein) | IC50 (PC3 cells [2]; Homo sapiens, PC-3) | IC50 (PC3 cells [1]; class symbol) | IC50 (PC3 cells [2]) | IC50 (PC3 cells [1]; [4]) |
| --- | --- | --- | --- | --- | --- | --- |
| COc1cc(N2CCC3(CCN(C)CC3)CC2)c(F)cc1Nc1ncc(C(F)(F)F)c(Oc2cccc3c2C(=O)N(C)C3)n1 [Compound 93] | < 5 nM | < 10 nM | > 2000 nM |  |  |  |
| COc1cc(C(=O)NC2CC3(CCN(C)CC3)C2)c(F)cc1Nc1ncc(C(F)(F)F)c(Cc2cccc3c2C(=O)CC3)n1 [Compound 84] | 5 to 50 nM | < 10 nM | > 2000 nM |  |  |  |
| CNC(=O)c1ccccc1Oc1nc(Nc2cc(F)c(C(=O)NC3CCC4(CC3)CCN(C)CC4)cc2OC)ncc1C(F)(F)F [Compound 9] | 5 to 50 nM | 10 to 50 nM | > 2000 nM |  |  |  |
| COc1cc(C(=O)N2CCC3(CCN(C)CC3)CC2)c(F)cc1Nc1ncc(C(F)(F)F)c(Oc2cccc3c2C(=O)N(C)C3)n1 [Compound 35] | > 50 nM | > 50 nM | > 2000 nM |  |  |  |
| COc1cc(C(=O)N2CCC3(CCN(C)C3)C2)c(F)cc1Nc1ncc(C(F)(F)F)c(Oc2cccc3c2C(=O)N(C)C3)n1 (stereo not drawn) [Compound 36] | 5 to 50 nM | < 10 nM | > 2000 nM |  |  |  |
| COc1cc(C(=O)NC2CC3(CCN(C)CC3)C2)c(F)cc1Nc1ncc(C(F)(F)F)c(Oc2cccc3c2C(=O)N(OC)C3)n1 [Compound 79] | < 5 nM | < 10 nM | > 2000 nM |  |  |  |
| CCc1cc(C(=O)NC2CC3(CCN(C)CC3)C2)c(F)cc1Nc1ncc(C(F)(F)F)c(Oc2cccc3c2C(=O)N(C)C3)n1 [Compound 85, 2-fluoro-4-((4-((2-methyl-3-oxoisoindol-4-yl)oxy)-5-(trifluoromethyl)pyrimidin-2-yl)amino)-N-(7-methyl-7-azaspiro[3.5]nonan-2-yl)-5-ethylbenzamide] | 5 to 50 nM | 10 to 50 nM | > 2000 nM |  |  |  |
| COc1cc(N2CCC3(CCN(C)C3)CC2)ccc1Nc1ncc(C(F)(F)F)c(Oc2cccc3c2C(=O)N(C)C3)n1 [Compound 95] | < 5 nM | < 10 nM | > 2000 nM |  |  |  |
| COc1cc(N2CC3(CCC2=O)CCN(C)CC3)c(F)cc1Nc1ncc(C(F)(F)F)c(Oc2cccc3c2C(=O)N(C)C3)n1 [Compound 65] | > 50 nM | > 50 nM | > 2000 nM |  |  |  |
| COc1cc(C(=O)NC2CCn3cnnc3C2)c(F)cc1Nc1ncc(C(F)(F)F)c(Oc2cccc3c2C(=O)N(C)C3)n1 (stereo not drawn) [Compound 33] | 5 to 50 nM | < 10 nM | > 2000 nM |  |  |  |
| COc1cc(N2CC3(CCNCC3)C2)c(F)cc1Nc1ncc(C(F)(F)F)c(Oc2cccc3c2C(=O)N(C)C3)n1 [Compound 107, 7-((2-((5-fluoro-2-methoxy-4-(2,7-diazaspiro[3.5]non-2-yl)phenyl)amino)-5-(trifluoromethyl)pyrimidin-4-yl)oxy)-2-methylisoindolin-1-one] | < 5 nM | < 10 nM | > 2000 nM |  |  |  |
| COc1cc(C(=O)NC2CCC3(CC2)CCN(C)C3)c(F)cc1Nc1ncc(C(F)(F)F)c(Cc2cccc3c2C(=O)N(C)C3)n1 (stereo not drawn) [Compound 53] | 5 to 50 nM | < 10 nM | > 2000 nM |  |  |  |
| COc1cc(C(=O)NC2CCN3CCOC3C2)c(F)cc1Nc1ncc(C(F)(F)F)c(Oc2cccc3c2C(=O)N(C)C3)n1 (stereo not drawn) [Compound 30] | 5 to 50 nM | < 10 nM | > 2000 nM |  |  |  |
| COc1cc(C(=O)NC2CCC3(CC2)CN(C)C3)ccc1Nc1ncc(C(F)(F)F)c(Oc2cccc3c2C(=O)N(C)C3)n1 [Compound 46] | 5 to 50 nM | < 10 nM | > 2000 nM |  |  |  |
| COc1cc(N2CC3(CCN(C)CC3)C2)ccc1Nc1ncc(F)c(Oc2cccc3c2C(=O)N(C)C3)n1 [Compound 115] |  | < 10 nM | > 2000 nM |  |  | 67 nM |
| COc1cc(C(=O)NC2COC3(CCN(C)CC3)C2)c(F)cc1Nc1ncc(C(F)(F)F)c(Oc2cccc3c2C(=O)N(C)C3)n1 (stereo not drawn) [Compound 23] |  | < 10 nM | > 2000 nM |  |  | 3.71 nM |
| CNC(=O)c1ccccc1Oc1nc(Nc2cc(F)c(C(=O)NC3CC4(CCN(C)CC4)CO3)cc2OC)ncc1C(F)(F)F (stereo not drawn) [Compound 3] | 5 to 50 nM | < 10 nM | > 2000 nM |  |  |  |
| COc1cc(C(=O)NC2CCC3(CC2)CN(C)C3)c(Cl)cc1Nc1ncc(C(F)(F)F)c(Oc2cccc3c2C(=O)N(C)C3)n1 [Compound 44] | 5 to 50 nM | < 10 nM | > 2000 nM |  |  |  |
| COc1cc(C(=O)NC2CC3(CCNCC3)C2)c(F)cc1Nc1ncc(C(F)(F)F)c(Oc2cccc3c2C(=O)N(C)C3)n1 [Compound 41] | 5 to 50 nM | 10 to 50 nM | > 2000 nM |  |  |  |
| COc1cc(C(=O)NC2CC3(CCN(C)CC3)C2)c(F)cc1Nc1ncc(C(F)(F)F)c(Oc2cccc3c2C(=O)CC3)n1 [Compound 82] | 5 to 50 nM | < 10 nM | > 2000 nM |  |  |  |
| COc1cc(N2CCC3(CC2)CN(C)C3)c(F)cc1Nc1ncc(C(F)(F)F)c(Oc2cccc3c2C(=O)N(C)C3)n1 [Compound 91] | < 5 nM | < 10 nM | > 2000 nM |  |  |  |
| COc1cc(N2CC3(CCN(C)CC3)C2)c(F)cc1Nc1ncc(Cl)c(Oc2cccc3c2C(=O)N(C)C3)n1 [Compound 110, 7-((5-chloro-2-((5-fluoro-2-methoxy-4-(7-methyl-2,7-diazaspiro[3.5]non-2-yl)phenyl)amino)pyrimidin-4-yl)oxy)-2-methylisoindolin-1-one] | < 5 nM | < 10 nM | > 2000 nM |  |  |  |

Next, values leading:

| IC50 (PC3 cells [1]; [3]) | IC50 (FAK recombinant protein) | IC50 (PC3 cells [2]; Homo sapiens, PC-3) | IC50 (PC3 cells [1]; class symbol) | IC50 (PC3 cells [2]) | IC50 (PC3 cells [1]; [4]) | SMILES |
| --- | --- | --- | --- | --- | --- | --- |
| 5 to 50 nM | < 10 nM | > 2000 nM |  |  |  | COc1cc(C(=O)NC2CCC3(CC2)CN(C)C3)c(F)cc1Nc1ncc(C(F)(F)F)c(Oc2ccccc2N(C)S(C)(=O)=O)n1 [Compound 17] |
| 5 to 50 nM | < 10 nM | > 2000 nM |  |  |  | [2H]C([2H])([2H])N1CC2(CCC(NC(=O)c3cc(OC)c(Nc4ncc(C(F)(F)F)c(Oc5cccc6c5C(=O)N(C)C6)n4)cc3F)CC2)C1 [Compound 48] |
| < 5 nM | < 10 nM | > 2000 nM |  |  |  | COc1cc(C(=O)NC2CCC3(CC2)CCN3C)c(F)cc1Nc1ncc(C(F)(F)F)c(Oc2cccc3c2C(=O)N(C)C3)n1 (stereo not drawn) [Compound 22] |
|  | < 10 nM |  | 5 to 50 nM | > 2000 nM |  | COc1cc(C(=O)N2CCC3(CCN(C)C3)C2)c(F)cc1Nc1ncc(C(F)(F)F)c(Oc2cccc3c2C(=O)N(C)C3)n1 (stereo not drawn) [Compound 37] |
| 5 to 50 nM | < 10 nM | > 2000 nM |  |  |  | COc1cc(C(=O)NC2CCC3(CCN(C)CC3)C2)c(F)cc1Nc1ncc(C(F)(F)F)c(Oc2ccccc2N(C)S(C)(=O)=O)n1 (stereo not drawn) [Compound 11] |
| 5 to 50 nM | < 10 nM | > 2000 nM |  |  |  | COc1cc(C(=O)NC2CCC3(CC2)CN(C)C3)c(F)cc1Nc1ncc(C(F)(F)F)c(Oc2cccc3c2C(=O)N(C)C3(C)C)n1 [Compound 77] |
| 5 to 50 nM | < 10 nM | > 2000 nM |  |  |  | COc1cc(C(=O)NC2CCC3(CCN(C)C3)C2)c(F)cc1Nc1ncc(C(F)(F)F)c(Oc2cccc3c2C(=O)N(C)C3)n1 (stereo not drawn) [Compound 27] |
| < 5 nM | < 10 nM | > 2000 nM |  |  |  | COc1cc(N2CC3(CCN(C4CC4)CC3)C2)ccc1Nc1ncc(C(F)(F)F)c(Oc2cccc3c2C(=O)N(C)C3)n1 [Compound 104] |
| 5 to 50 nM | < 10 nM | > 2000 nM |  |  |  | COc1cc(C(=O)NC2CCC3(CC2)CN(C)C3)c(F)cc1Nc1ncc(C(F)(F)F)c(Cc2cccc3c2C(=O)N(C)C3)n1 [Compound 50] |
| < 5 nM | < 10 nM | > 2000 nM |  |  |  | [2H]C([2H])([2H])N1CCC2(CC1)CN(c1ccc(Nc3ncc(C(F)(F)F)c(Oc4cccc5c4C(=O)N(C)C5)n3)c(OC)c1)C2 [Compound 109, 7-((2-((2-methoxy-4-(7-(methyl-d3)-2,7-diazaspiro[3.5]non-2-yl)phenyl)amino)-5-(trifluoromethyl)pyrimidin-4-yl)oxy)-2-methylisoindolin-1-one] |
| 5 to 50 nM | < 10 nM | > 2000 nM |  |  |  | CNC(=O)c1ccccc1Oc1nc(Nc2cc(F)c(C(=O)NC3CC4(CCN(C)CC4)C3)cc2OC)ncc1C(F)(F)F [Compound 1, 2-fluoro-5-methoxy-N-(7-methyl-7-azaspiro[3.5]nonan-2-yl)-4-((4-(2-(methylcarbamoyl)phenoxy)-5-(trifluoromethyl)pyrimidin-2-yl)amino)benzamide] |
| 5 to 50 nM | 10 to 50 nM | > 2000 nM |  |  |  | COc1cc(C(=O)N2CCC23CCN(C)CC3)c(F)cc1Nc1ncc(C(F)(F)F)c(Oc2cccc3c2C(=O)N(C)C3)n1 [Compound 38] |
| < 5 nM | < 10 nM | > 2000 nM |  |  |  | COc1cc(C(=O)NC2CC3(CCN(C)CC3)C2)ccc1Nc1ncc(C(F)(F)F)c(Oc2cccc3c2C(=O)N(C)C3)n1 [Compound 45] |
| 5 to 50 nM | < 10 nM | > 2000 nM |  |  |  | COc1cc(C(=O)NC2CCC3(CCN(C)C3)C2)c(F)cc1Nc1ncc(C(F)(F)F)c(Oc2ccccc2N(C)S(C)(=O)=O)n1 (stereo not drawn) [Compound 13] |
| 5 to 50 nM | < 10 nM | > 2000 nM |  |  |  | COc1cc(C(=O)N2CCC3(CCN(C)CC3)C2)c(F)cc1Nc1ncc(C(F)(F)F)c(Oc2cccc3c2C(=O)N(C)C3)n1 [Compound 39] |
